Several values for one entry are separate records, joined by “and”; a condition that tells them apart may be missing. Identical values can stand only once.
What was measured:
[1] = background statement, cited from earlier work
[2] = Leflunomide toxicity measured by hematocrit; assay type: in vivo, Lewis rats; conditions: for Hct Week 0 / Hct Week 1 / Hct Week 2 / Hct Week 3 / Hct Week 4: individual rat; for Hct Week 0: baseline hematocrit; for Hct Week 1: week 1 of therapy; for Hct Week 2: week 2 of therapy; for Hct Week 3: week 3 of therapy; for Hct Week 4: week 4 of therapy
Protocol: The experiment of Example 2 was repeated in Lewis rats and the hematocrit measured weekly for four weeks. The rats receiving treatment were divided into five groups wherein each group received 30/mg/kg/day leflunomide, a toxic, high dose. Group I received leflunomide only. Group II received the leflunomide dose plus 36/mg/kg/day of sodium orotate; group III received the leflunomide dose plus 100 mg/kg/day of sodium orotate; group IV received the leflunomide dose plus 88 mg/kg/day of orotic acid; and group V received the leflunomide dose plus 250 mg/kg/day of uridine given IP. A baseline hematocrit was measured, and hematocrits of each rat were measured at weeks 1-4 post commencement of therapy.

[3] = test system: heart transplants from Brown-Norway rats; experiment: Heart transplant acute rejection: graft survival and inflammation score; assay type: in vivo, Lewis Rats; conditions: for Graft survival / Inflammation score (Mean) (0-3): orotic acid 0 mg/kg/day; for Inflammation score (Mean) (0-3): 0 = no inflammation
Protocol: Treatments included 0, 5, 10 or 15 mg/kg of leflunomide in combination with 0 or 100 mg/kg orotic acid.

## CC(=O)OC[C@H]1O[C@@H](n2ccc(=O)[nH]c2=O)[C@H](OC(C)=O)[C@@H]1OC(C)=O [TAU, 2′, 3′, 5′-tri-O-acetyl uridine]
[1]
  oral bioavailability: orally bioavailable

## Cc1oncc1C(=O)Nc1ccc(C(F)(F)F)cc1 [leflunomide, N-(4-trifluoromethylphenyl)-5-methylisoxazol-4-carboxamide]
[2]; group mean, week 4
  Hct Week 4, group Mean: Mean: 23.8
[2]; listed as L 30
  Hct Week 0: 53 and 54 and 55 and 52
  Hct Week 1: 53 and 55 and 49 and 50
  Hct Week 2: 44 and 54 and 48 and 46
  Hct Week 3: 41 and 37 (2×) and 33
  Hct Week 4: 30 (2×) and 24 and 22
[2]; listed as L30
  Hct Week 0: 51 and 57
  Hct Week 1: 47 and 52
  Hct Week 2: 39 and 46
  Hct Week 3: 31 and 33
  Hct Week 4: 17 and 20
[3]; leflunomide 5 mg/kg/day
  Graft survival: >30 days
  Inflammation score (Mean) (0-3): 2.0
[3]; leflunomide 10 mg/kg/day
  Graft survival: >30 days
  Inflammation score (Mean) (0-3): 1.7
[3]; leflunomide 15 mg/kg/day
  Graft survival: >30 days
  Inflammation score (Mean) (0-3): 1.5
[3]; leflunomide 5, 10, 15 mg/kg, dose-related
  Intensity of the rejection reaction (inflammation score): reduced the intensity of the rejection reaction

## O=C(O)c1cc(=O)[nH]c(=O)[nH]1 [orotic acid]
[1]; no test described
  bioavailability: approximately 50%
[3]; orotic acid 100 mg/kg with leflunomide 5-15 mg/kg
  Effect of orotic acid on efficacy of leflunomide to reduce the rejection reaction: did not significantly affect the efficacy of leflunomide

Source: patent publication US20060024376A1, “Methods and compositions for reducing toxicity associated with leflunomide treatment” (The University of Chicago, priority 2004, published 2006)
